Experimental data published in PMC4297247 (Molecular cancer therapeutics, 2014).

Key:
[1] = test system: mesenchymal-like TNBC cell lines; conditions: cited from earlier work
[2] = test system: mesenchymal-like cell lines, BT549, Hs578T, and MDA-MB231; test: Kinase inhibitor screen, CellTiter Glo cell viability, one week; assay type: cell-based, human; conditions: did not reach statistical significance (p = 0.12)
[3] = test system: cell lines of the LAR subtype; conditions: cited from earlier work
basal-like TNBCs = conditions: cell lines and clinically; cited from earlier work

Cc1nc(Nc2ncc(C(=O)Nc3c(C)cccc3Cl)s2)cc(N2CCN(CCO)CC2)n1 [dasatinib]
preferential toxicity by TNBC subtype [1]: preferential toxicity for mesenchymal-like TNBC cell lines
sensitivity compared to cells of other TNBC subtypes [2]: more sensitive to dasatinib than cells of other TNBC subtypes

CC(O)(CS(=O)(=O)c1ccc(F)cc1)C(=O)Nc1ccc(C#N)c(C(F)(F)F)c1 (stereo not shown) [bicalutamide]
selective toxicity by TNBC subtype [3]: selectively toxic to cell lines of the LAR subtype

N.N.[Cl][Pt][Cl] [cisplatin]
toxicity by TNBC subtype (basal-like TNBCs): more toxic to basal-like TNBCs
